These results are taken from PubChem BioAssay (NCI).

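In this assay, cells in 96-well plates receive the compound at five concentrations for 48 hours. Endpoints are linearly interpolated between the surrounding concentrations. GI50 marks 50% less growth. TGI: total growth inhibition.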

Some test systems named below: LOX IMVI melanoma; OVCAR-5 ovarian; SK-OV-3 ovarian; SW-620 colon; K-562 leukemia; ACHN renal; NCI-H226 lung; UACC-62 melanoma; KM12 colon; M14 melanoma.
Assay in all cases: inhibition of tumour cell growth, NCI panel, 48 h

For `COC(=O)c1ccccc1/C=C1/Cc2ccccc2C1=O`, the TGI in the test on LOX IMVI melanoma was 39.9 µM; with OVCAR-5 ovarian it was greater than 100 µM; with SK-OV-3 ovarian, greater than 100 µM; with SW-620 colon, 85.5 µM; in the test with K-562 leukemia, greater than 100 µM; in the test on ACHN renal, greater than 100 µM. In addition, the TGI was greater than 100 µM with NCI-H226 lung, greater than 100 µM in the test with UACC-62 melanoma and 96.5 µM in the test with KM12 colon.
As to `O=C1CCSSCCC(=O)NCCN1`, the TGI with LOX IMVI melanoma, with OVCAR-5 ovarian, in the test on SK-OV-3 ovarian, in the test on SW-620 colon, with K-562 leukemia and with ACHN renal was greater than 100 µM in each case. The TGI with M14 melanoma, in the test with NCI-H226 lung, in the test on UACC-62 melanoma and with KM12 colon was greater than 100 µM each time.
For the molecule `C/C(N=Nc1nc2ccccc2s1)=C1/C=CC=CN1O`, the TGI is greater than 100 µM with LOX IMVI melanoma; 5.95 µM in the test with OVCAR-5 ovarian; greater than 100 µM in the test with SK-OV-3 ovarian; greater than 100 µM in the test on SW-620 colon; greater than 100 µM in the test with K-562 leukemia; greater than 100 µM in the test on ACHN renal. Besides, the TGI with M14 melanoma, with NCI-H226 lung, with UACC-62 melanoma and in the test on KM12 colon was greater than 100 µM each time.
Consider `CC(C)=C[C@@H]1C[C@H](n2cc(C)c(=O)[nH]c2=O)ON1CCO`, for which the TGI in the test with LOX IMVI melanoma, in the test with OVCAR-5 ovarian, in the test on SK-OV-3 ovarian, with SW-620 colon, in the test on K-562 leukemia and in the test on ACHN renal was greater than 100 µM throughout. The TGI in the test with M14 melanoma, in the test on NCI-H226 lung, in the test on UACC-62 melanoma and in the test with KM12 colon was greater than 100 µM each time.
On to `Cc1cc(-c2nc3c(O)cccc3s2)ccc1N`, for which the TGI in the test on LOX IMVI melanoma was 40.1 µM; in the test with SK-OV-3 ovarian it was greater than 100 µM; in the test with SW-620 colon it was greater than 100 µM; with K-562 leukemia it was greater than 100 µM; with ACHN renal, 43.4 µM; in the test with M14 melanoma it was 39.5 µM. Also, the TGI was greater than 100 µM in the test on NCI-H226 lung, 26.7 µM with UACC-62 melanoma and 65 µM in the test on KM12 colon.
`CN(C)C(CN)CC1=C(CC(CN)N(C)C)CCC1` (centres undefined): the TGI in the test with LOX IMVI melanoma, in the test with OVCAR-5 ovarian, in the test with SK-OV-3 ovarian, with SW-620 colon, with K-562 leukemia and with NCI-H226 lung was greater than 100 µM throughout. Also, the TGI in the test with UACC-62 melanoma and with KM12 colon was greater than 100 µM in each case.
In the case of `COc1cc(/C=C/C(=O)O)ccc1C(=O)O/C=C/c1ccccc1`, the TGI in the test with LOX IMVI melanoma, in the test with OVCAR-5 ovarian, in the test on SK-OV-3 ovarian, with SW-620 colon, in the test with K-562 leukemia and in the test with NCI-H226 lung was greater than 100 µM in each case. Moreover, the TGI with UACC-62 melanoma and in the test with KM12 colon was greater than 100 µM each time.
For the molecule `c1ccc2c(c1)[nH]c1nc3cc(-c4ccc5nc6c(nc5c4)[nH]c4ccccc46)ccc3nc12`, the TGI in the test on LOX IMVI melanoma, in the test on OVCAR-5 ovarian, in the test with SK-OV-3 ovarian, with SW-620 colon, in the test on ACHN renal and in the test with M14 melanoma was greater than 100 µM throughout. In addition, the TGI in the test with NCI-H226 lung, in the test with UACC-62 melanoma and in the test with KM12 colon was greater than 100 µM throughout.
As to `N#Cc1c(-c2ccccc2)/c(=C\Nc2ccc(Cl)cc2)c(=O)n2c1nc1ccccc12`, the TGI with LOX IMVI melanoma, in the test with OVCAR-5 ovarian, with SK-OV-3 ovarian, in the test on SW-620 colon, with ACHN renal and in the test with M14 melanoma was greater than 100 µM each time. Also, the TGI in the test with NCI-H226 lung and with KM12 colon was greater than 100 µM in each case.
On to `Oc1ccc(-c2nnc3sc(-c4ccc(F)cc4)nn23)cc1`, for which the GI50 with LOX IMVI melanoma is 34.5 µM; in the test with OVCAR-5 ovarian, greater than 100 µM; in the test on SK-OV-3 ovarian, 34.9 µM; in the test on SW-620 colon, greater than 100 µM; with K-562 leukemia, greater than 100 µM; in the test with ACHN renal it was 24.7 µM. Besides, the GI50 was 49.6 µM in the test on NCI-H226 lung, 31.8 µM in the test on UACC-62 melanoma and greater than 100 µM in the test on KM12 colon. Also, the TGI with LOX IMVI melanoma, in the test on OVCAR-5 ovarian, in the test on SK-OV-3 ovarian, with SW-620 colon, with K-562 leukemia and in the test with ACHN renal was greater than 100 µM in each case. Besides, the TGI in the test on NCI-H226 lung, in the test with UACC-62 melanoma and in the test on KM12 colon was greater than 100 µM in each case.
As for `O=[N+]([O-])C(=C(N1CCCCC1)N1CCCCC1)/C(Cl)=C(\Cl)Br`, the TGI is 44.9 µM in the test on LOX IMVI melanoma; greater than 100 µM in the test on SK-OV-3 ovarian; 38.5 µM in the test with SW-620 colon; 46.2 µM with K-562 leukemia; 79.5 µM with ACHN renal; 59.1 µM with M14 melanoma. The TGI with NCI-H226 lung came out at 44.6 µM; with UACC-62 melanoma, 28.1 µM; in the test with KM12 colon, 54.5 µM.
With `Cc1nn(C(=O)Cc2ccccc2)c2c1C(c1ccccc1O)SC(N)=N2` (centres undefined), the TGI with LOX IMVI melanoma, with SK-OV-3 ovarian, with SW-620 colon, in the test on K-562 leukemia, with ACHN renal and in the test with M14 melanoma was greater than 100 µM in each case. Besides, the TGI with NCI-H226 lung, in the test with UACC-62 melanoma and in the test on KM12 colon was greater than 100 µM throughout.
Consider `COCOc1ccc(OC)cc1`, for which the TGI in the test on LOX IMVI melanoma, in the test with OVCAR-5 ovarian, with SK-OV-3 ovarian, in the test with SW-620 colon, in the test on K-562 leukemia and in the test with NCI-H226 lung was greater than 100 µM in each case. The TGI in the test with UACC-62 melanoma and with KM12 colon was greater than 100 µM each time.
For the molecule `CC(=O)OC[C@]1(C(=O)C(O)c2ccoc2)[C@H](C)CC[C@@]23COC(=O)C2=CCC[C@@H]31` (some centres undefined), the TGI in the test with LOX IMVI melanoma, in the test on OVCAR-5 ovarian, in the test on SK-OV-3 ovarian, in the test with SW-620 colon, in the test with ACHN renal and in the test with M14 melanoma was greater than 10 µM throughout. Further, the TGI in the test with NCI-H226 lung, with UACC-62 melanoma and in the test on KM12 colon was greater than 10 µM each time.
Take `C/C(=C\c1ccccc1)C(=O)CCN1CCOCC1`: the TGI in the test with LOX IMVI melanoma is 34.6 µM; with OVCAR-5 ovarian it was 33.4 µM; with SK-OV-3 ovarian, greater than 100 µM; in the test on SW-620 colon, 30.9 µM; in the test with K-562 leukemia it was greater than 69.7 µM; in the test with NCI-H226 lung, greater than 65 µM. The TGI in the test with UACC-62 melanoma is 32.6 µM; with KM12 colon, 31.2 µM.
For the molecule `CC1(C)C(c2ccccc2)=[N+]([O-])C(C)(C)N1O`, the TGI with LOX IMVI melanoma, with OVCAR-5 ovarian, in the test with SK-OV-3 ovarian, in the test on SW-620 colon, with ACHN renal and in the test with M14 melanoma was greater than 10 µM each time. Also, the TGI in the test with NCI-H226 lung, in the test on UACC-62 melanoma and in the test with KM12 colon was greater than 10 µM each time.
Regarding `C/C(=N/NC(N)=S)c1ccc2ccccc2c1`, the TGI with LOX IMVI melanoma was greater than 100 µM; in the test on OVCAR-5 ovarian, 86 µM; in the test on SK-OV-3 ovarian, 51.6 µM; in the test with SW-620 colon, greater than 100 µM; with ACHN renal it was greater than 100 µM; in the test with M14 melanoma, 79.1 µM. Also, the TGI was greater than 100 µM in the test with NCI-H226 lung, 28.6 µM in the test on UACC-62 melanoma and greater than 100 µM in the test on KM12 colon.
`CCOC(=O)C1=C(C(C)=O)CSC(c2ccccc2)=N1`: the TGI with LOX IMVI melanoma, with OVCAR-5 ovarian, in the test on SK-OV-3 ovarian, in the test on SW-620 colon, with K-562 leukemia and in the test on NCI-H226 lung was greater than 100 µM throughout. Further, the TGI with UACC-62 melanoma and with KM12 colon was greater than 100 µM throughout.
In the case of `COC(=O)c1csnn1`, the TGI in the test on LOX IMVI melanoma, in the test on SK-OV-3 ovarian, with SW-620 colon, in the test with K-562 leukemia, with ACHN renal and in the test on M14 melanoma was greater than 100 µM throughout. Besides, the TGI in the test on NCI-H226 lung, with UACC-62 melanoma and with KM12 colon was greater than 100 µM throughout.
For the molecule `COc1ccc(-c2cc(=O)c3cc4c(cc3[nH]2)OCO4)c(OC)c1OC`, the TGI in the test with LOX IMVI melanoma, in the test on SK-OV-3 ovarian, in the test on SW-620 colon, in the test with K-562 leukemia, in the test with ACHN renal and with M14 melanoma was greater than 100 µM in each case. Moreover, the TGI in the test with NCI-H226 lung, with UACC-62 melanoma and in the test with KM12 colon was greater than 100 µM each time.
On to `N#Cc1nc(-c2cc([N+](=O)[O-])cc([N+](=O)[O-])c2)oc1N`, for which the TGI with LOX IMVI melanoma, in the test with SK-OV-3 ovarian, in the test with SW-620 colon, in the test on K-562 leukemia, with ACHN renal and with M14 melanoma was greater than 10 µM in each case. In addition, the TGI in the test on NCI-H226 lung, with UACC-62 melanoma and in the test with KM12 colon was greater than 10 µM each time.
`COc1cc(OCc2ccc3oc(=O)c(-c4ccccc4)nc3c2)cc(OC)c1OC`: the TGI with LOX IMVI melanoma, in the test with OVCAR-5 ovarian, with SK-OV-3 ovarian, with SW-620 colon, in the test with K-562 leukemia and with ACHN renal was greater than 100 µM each time. In addition, the TGI in the test with M14 melanoma, in the test with NCI-H226 lung and in the test on UACC-62 melanoma was greater than 100 µM in each case.
